Data taken from the NIST ThermoML archive (doi:10.1016/j.jct.2011.08.019).
Values joined by “and” are separate entries in the source; they are usually repeats but may differ in a detail not shown here. Equal entries are not always repeated. ± gives the expanded uncertainty stated by the source.

Assay: molar heat capacity at constant pressure
Settings: 101.33 kPa, Liquid, Small sample (50 mg) DSC

Row | Compound | molar heat capacity at constant pressure (343.15 K) | molar heat capacity at constant pressure (348.15 K) | molar heat capacity at constant pressure (353.15 K) | molar heat capacity at constant pressure (358.15 K) | molar heat capacity at constant pressure (363.15 K) | molar heat capacity at constant pressure (368.15 K) | molar heat capacity at constant pressure (373.15 K) | molar heat capacity at constant pressure (378.15 K) | molar heat capacity at constant pressure (383.15 K) | molar heat capacity at constant pressure (388.15 K) | molar heat capacity at constant pressure (393.15 K) | molar heat capacity at constant pressure (398.15 K) | molar heat capacity at constant pressure (403.15 K) | molar heat capacity at constant pressure (408.15 K) | molar heat capacity at constant pressure (413.15 K) | molar heat capacity at constant pressure (418.15 K) | molar heat capacity at constant pressure (423.15 K) | molar heat capacity at constant pressure (428.15 K) | molar heat capacity at constant pressure (433.15 K) | molar heat capacity at constant pressure (438.15 K) | further results
1 | CCCCCCCCCCCCCC[P+](CCCCCC)(CCCCCC)CCCCCC.FC(F)(F)C(F)(F)[P-](F)(F)(F)(C(F)(F)C(F)(F)F)C(F)(F)C(F)(F)F | 1547.5 ± 160 J/K/mol [middle of 4 runs] | 1556.8 ± 160 J/K/mol [middle of 4 runs] | 1566.1 ± 160 J/K/mol and 1563.3 ± 160 J/K/mol | 1577.2 ± 160 J/K/mol and 1574.4 ± 160 J/K/mol | 1587.4 ± 160 J/K/mol and 1583.7 ± 160 J/K/mol and 1585.6 ± 160 J/K/mol | 1596.7 ± 160 J/K/mol [middle of 4 runs] | 1604.1 ± 160 J/K/mol [middle of 4 runs] | 1615.3 ± 160 J/K/mol [middle of 4 runs] | 1626.4 ± 160 J/K/mol [middle of 4 runs] | 1634.8 ± 170 J/K/mol | 1645 ± 170 J/K/mol [middle of 4 runs] | 1652.4 ± 170 J/K/mol [middle of 4 runs] | 1661.7 ± 170 J/K/mol [middle of 4 runs] | 1668.2 ± 170 J/K/mol and 1669.2 ± 170 J/K/mol | 1678.4 ± 170 J/K/mol and 1677.5 ± 170 J/K/mol | 1688.7 ± 170 J/K/mol and 1685.9 ± 170 J/K/mol and 1687.7 ± 170 J/K/mol | 1697 ± 170 J/K/mol [middle of 4 runs] | 1700.7 ± 170 J/K/mol [middle of 4 runs] | 1707.2 ± 170 J/K/mol and 1711 ± 170 J/K/mol | 1722.1 ± 170 J/K/mol [middle of 4 runs] | molar heat capacity at constant pressure (338.15 K): 1543.8 ± 160 J/K/mol [middle of 4 runs]; molar heat capacity at constant pressure (443.15 K): 1727.7 ± 170 J/K/mol [middle of 4 runs]; molar heat capacity at constant pressure (448.15 K): 1735.1 ± 180 J/K/mol [middle of 4 runs]; molar heat capacity at constant pressure (453.15 K): 1743.5 ± 180 J/K/mol [middle of 4 runs]; molar heat capacity at constant pressure (458.15 K): 1750 ± 180 J/K/mol and 1753.7 ± 180 J/K/mol and 1739.7 ± 180 J/K/mol; molar heat capacity at constant pressure (463.15 K): 1756.5 ± 180 J/K/mol [middle of 4 runs]; molar heat capacity at constant pressure (468.15 K): 1761.1 ± 180 J/K/mol [middle of 4 runs]; molar heat capacity at constant pressure (473.15 K): 1763.9 ± 180 J/K/mol [middle of 4 runs]; molar heat capacity at constant pressure (478.15 K): 1771.3 ± 180 J/K/mol [middle of 4 runs]; molar heat capacity at constant pressure (483.15 K): 1768.5 ± 180 J/K/mol and 1776 ± 180 J/K/mol and 1780.6 ± 180 J/K/mol; molar heat capacity at constant pressure (488.15 K): 1785.3 ± 180 J/K/mol [middle of 4 runs]; molar heat capacity at constant pressure (493.15 K): 1785.3 ± 180 J/K/mol [middle of 4 runs]; molar heat capacity at constant pressure (498.15 K): 1787.1 ± 180 J/K/mol [middle of 4 runs]; molar heat capacity at constant pressure (503.15 K): 1798.3 ± 180 J/K/mol [middle of 4 runs]; molar heat capacity at constant pressure (508.15 K): 1802 ± 180 J/K/mol [middle of 4 runs]; molar heat capacity at constant pressure (513.15 K): 1809.4 ± 180 J/K/mol and 1803.8 ± 180 J/K/mol and 1805.7 ± 180 J/K/mol
2 | CCCCCCCCCCCCCC[P+](CCCCCC)(CCCCCC)CCCCCC.[Cl-] [trihexyl(tetradecyl)phosphonium chloride] | 838.7 ± 85 J/K/mol and 837.1 ± 84 J/K/mol and 837.6 ± 85 J/K/mol | 842.8 ± 85 J/K/mol [middle of 4 runs] | 850.6 ± 86 J/K/mol and 848.5 ± 86 J/K/mol and 849.1 ± 86 J/K/mol | 857.9 ± 87 J/K/mol and 855.3 ± 86 J/K/mol and 854.8 ± 86 J/K/mol | 863.6 ± 87 J/K/mol and 861.5 ± 87 J/K/mol and 860.5 ± 87 J/K/mol | 870.9 ± 88 J/K/mol and 868.3 ± 88 J/K/mol and 867.8 ± 88 J/K/mol | 876.6 ± 88 J/K/mol and 874.5 ± 88 J/K/mol and 874 ± 88 J/K/mol | 881.8 ± 89 J/K/mol [middle of 4 runs] | 889.6 ± 90 J/K/mol and 886.5 ± 90 J/K/mol and 888 ± 90 J/K/mol | 893.7 ± 90 J/K/mol [middle of 4 runs] | 901 ± 91 J/K/mol and 899.4 ± 91 J/K/mol and 898.4 ± 91 J/K/mol | 905.2 ± 91 J/K/mol [middle of 4 runs] | 910.3 ± 92 J/K/mol [middle of 4 runs] | 917.6 ± 93 J/K/mol and 915 ± 92 J/K/mol and 916.1 ± 92 J/K/mol | 922.8 ± 93 J/K/mol [middle of 4 runs] | 928 ± 94 J/K/mol [middle of 4 runs] | 933.2 ± 94 J/K/mol and 931.1 ± 94 J/K/mol and 932.7 ± 94 J/K/mol | 937.9 ± 95 J/K/mol [middle of 4 runs] | 944.1 ± 95 J/K/mol [middle of 4 runs] | 948.8 ± 96 J/K/mol [middle of 4 runs] | molar heat capacity at constant pressure (338.15 K): 835 ± 84 J/K/mol and 833.5 ± 84 J/K/mol and 834 ± 84 J/K/mol; molar heat capacity at constant pressure (443.15 K): 952.4 ± 96 J/K/mol and 953.4 ± 96 J/K/mol and 951.4 ± 96 J/K/mol; molar heat capacity at constant pressure (448.15 K): 957.1 ± 97 J/K/mol [middle of 4 runs]; molar heat capacity at constant pressure (453.15 K): 961.2 ± 97 J/K/mol [middle of 4 runs]; molar heat capacity at constant pressure (458.15 K): 965.4 ± 98 J/K/mol [middle of 4 runs]; molar heat capacity at constant pressure (463.15 K): 968 ± 98 J/K/mol [middle of 4 runs]
3 | CCCC[P+](C)(CCCC)CCCC.COS(=O)(=O)[O-] [tributylmethylphosphonium methyl sulfate] | 668.1 ± 68 J/K/mol and 660.8 ± 67 J/K/mol | 672 ± 68 J/K/mol and 665.4 ± 67 J/K/mol | 676.3 ± 68 J/K/mol and 669.7 ± 68 J/K/mol | 681.2 ± 69 J/K/mol and 674.3 ± 68 J/K/mol | 685.8 ± 69 J/K/mol and 678.9 ± 69 J/K/mol | 690.4 ± 70 J/K/mol and 683.8 ± 69 J/K/mol | 695.3 ± 70 J/K/mol and 687.4 ± 69 J/K/mol | 698.3 ± 70 J/K/mol and 692.4 ± 70 J/K/mol | 703.2 ± 71 J/K/mol and 697.3 ± 70 J/K/mol | 707.2 ± 71 J/K/mol and 702.2 ± 71 J/K/mol | 711.1 ± 72 J/K/mol and 705.5 ± 71 J/K/mol | 714.4 ± 72 J/K/mol and 711.1 ± 72 J/K/mol | 715 ± 72 J/K/mol and 715.4 ± 72 J/K/mol | 720 ± 73 J/K/mol and 718.6 ± 73 J/K/mol | 726.2 ± 73 J/K/mol and 721.3 ± 73 J/K/mol | 729.2 ± 74 J/K/mol and 723.9 ± 73 J/K/mol | 733.1 ± 74 J/K/mol and 728.8 ± 74 J/K/mol | 736.4 ± 74 J/K/mol and 732.4 ± 74 J/K/mol | 738.4 ± 75 J/K/mol and 737.4 ± 74 J/K/mol | 743.3 ± 75 J/K/mol and 741.6 ± 75 J/K/mol | molar heat capacity at constant pressure (443.15 K): 745.9 ± 75 J/K/mol and 744.6 ± 75 J/K/mol; molar heat capacity at constant pressure (448.15 K): 748.9 ± 76 J/K/mol and 747.6 ± 76 J/K/mol; molar heat capacity at constant pressure (453.15 K): 751.8 ± 76 J/K/mol and 750.8 ± 76 J/K/mol; molar heat capacity at constant pressure (458.15 K): 754.4 ± 76 J/K/mol and 754.1 ± 76 J/K/mol; molar heat capacity at constant pressure (463.15 K): 757.4 ± 76 J/K/mol and 756.1 ± 76 J/K/mol
